pIC50: −log10 of the molar value. The source made the active and inactive calls. The rule behind the calls is not given here.
What was measured:
[1] = system: Rattus norvegicus; assay: Anti-inflammatory activity in Rattus norvegicus (rat) assessed as inhibition of carrageenan-induced paw edema at 100 mg/kg, po treated 60 min prior to carrageenan injection measured after 1 to 5 hr; format: functional
[2] = system: Rattus norvegicus; assay: Anti-inflammatory activity in Rattus norvegicus (rat) assessed as inhibition of carrageenan-induced paw edema at 100 mg/kg, po treated 60 min prior to carrageenan injection measured after 1 to 5 hr relative to ibuprofen; format: functional
[3] = biological target: T1, Prostaglandin G/H synthase 1 (Ovis aries, UniProt P05979); assay: Inhibition of Ovis aries (sheep) COX-1 assessed as decrease in PGF2a production from PGH2 upon reduction with stannous chloride using arachidonic acid as substrate pre-incubated with enzyme for 5 min prior to substrate addition by enzyme immunoassay
T1 sequence (P05979 whole entry): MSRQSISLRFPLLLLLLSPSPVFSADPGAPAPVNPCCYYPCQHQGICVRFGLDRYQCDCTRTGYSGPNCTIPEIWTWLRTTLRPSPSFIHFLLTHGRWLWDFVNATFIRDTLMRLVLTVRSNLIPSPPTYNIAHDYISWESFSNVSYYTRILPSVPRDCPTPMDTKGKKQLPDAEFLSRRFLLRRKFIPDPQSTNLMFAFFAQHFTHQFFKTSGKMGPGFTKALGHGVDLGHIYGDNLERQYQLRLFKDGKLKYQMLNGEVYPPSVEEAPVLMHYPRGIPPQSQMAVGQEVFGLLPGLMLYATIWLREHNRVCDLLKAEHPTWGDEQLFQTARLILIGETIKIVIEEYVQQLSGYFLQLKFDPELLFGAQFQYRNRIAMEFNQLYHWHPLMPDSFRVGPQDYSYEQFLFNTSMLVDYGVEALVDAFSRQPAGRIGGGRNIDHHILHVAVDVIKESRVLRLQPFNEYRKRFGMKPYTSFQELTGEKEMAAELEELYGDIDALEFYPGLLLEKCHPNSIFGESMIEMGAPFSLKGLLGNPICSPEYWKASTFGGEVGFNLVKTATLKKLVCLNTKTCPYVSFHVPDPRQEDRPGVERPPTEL

For `O=C1NC(/C=C/c2ccc(O)cc2)=C(C(=O)O)C(c2ccc(O)cc2)N1` (centres undefined), the inhibition in vivo at 100 mg/kg [1] was 12%.

`CN(C)c1ccc(/C=C/C2=C(C(=O)O)C(c3ccc(N(C)C)cc3)NC(=O)N2)cc1` (centres undefined) was tested, and the inhibition [1] was “inactive”.

`CN(C)c1ccc(/C=C/C2=C(C(=O)O)C(c3ccc(N(C)C)cc3)NC(=S)N2)cc1` (centres undefined) was tested, and the inhibition [1] was “inactive”.

Work on `COc1ccc(/C=C/C2=C(C(=O)O)C(c3ccc(OC)cc3)NC(=S)N2)cc1` (centres undefined) yielded an inhibition in vivo at 100 mg/kg [2] of 38%, a pIC50 [3] of 4.84 and an inhibition in vivo at 100 mg/kg [1] of 38%.

Compound `O=C1NC(/C=C/c2ccccc2)=C(C(=O)O)C(c2ccccc2)N1` (centres undefined) has an inhibition in vivo at 100 mg/kg [1] of 16%.

For `O=C1NC(/C=C/c2ccc([N+](=O)[O-])cc2)=C(C(=O)O)C(c2ccc([N+](=O)[O-])cc2)N1` (centres undefined), the inhibition [1] was “inactive”.

Compound `COc1ccc(/C=C/C2=C(C(=O)O)C(c3ccc(OC)cc3)NC(=O)N2)cc1` (centres undefined) has an inhibition in vivo at 100 mg/kg [2] of 41%, a pIC50 [3] of 4.83 and an inhibition in vivo at 100 mg/kg [1] of 23%.

`CC(C)Cc1ccc(C(C)C(=O)O)cc1` (centres undefined) [IBUPROFEN] showed an inhibition in vivo at 100 mg/kg [1] of 56%.

With `O=C(O)C1=C(/C=C/c2ccc(O)cc2)NC(=S)NC1c1ccc(O)cc1` (centres undefined) the inhibition [1] was “inactive”.

For `O=C(O)C1=C(/C=C/c2ccccc2)NC(=S)NC1c1ccccc1` (centres undefined), the inhibition [1] was “inactive”.

Source: ChEMBL document CHEMBL3045345, “Computer simulation of the in vitro and in vivo anti-inflammatory activities of dihydropyrimidines acid derivatives through the inhibition of cyclooxygenase-2” (Med Chem Res, 2013)
